System: RS4;11 cells
Experiment: Cell viability assay (CellTiter-Glo) in RS4;11 cells
Assay type: cell-based
Conditions: Homo sapiens, 72 h; RS4;11 ALL cells treated for three days; read-out: cell viability inhibition IC50
Procedure, shortened: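 RS4;11 cells seeded at 5000 per well, exposed for 3 days to 8- or 12-point 3-fold serial dilutions. Viability read by CellTiter-Glo luminescence; IC50 fitted by nonlinear least-squares regression.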

| IC50 [µM] | Compound |
| --- | --- |
| < 0.1 | O=C1CCC(N2C(=O)c3ccc(NCCCCCCC(=O)N4CCC(n5cc(-c6cnc7cccc(-c8cc(F)c(CN9CCOCC9)c(F)c8)c7n6)cn5)CC4)cc3C2=O)C(=O)N1 (centres unmarked) [JA-188, 5-((7-(4-(4-(8-(3,5-difluoro-4-(morpholinomethyl)phenyl)quinoxalin-2-yl)-1H-pyrazol-1-yl)piperidin-1-yl)-7-oxoheptyl)amino)-2-(2,6-dioxopiperidin-3-yl)isoindoline-1,3-dione] |

Same assay, conditions: Homo sapiens, 72 h; RS4;11 cells; cell viability, 3 days, CellTiter-Glo; read-out: IC50

| Compound | IC50 [µM] |
| --- | --- |
| Cc1ncsc1-c1ccc(CNC(=O)[C@@H]2C[C@@H](O)CN2C(=O)[C@@H](NC(=O)CCCCCC(=O)N2CCC(n3cc(-c4cnc5cccc(-c6cc(F)c(CN7CCOCC7)c(F)c6)c5n4)cn3)CC2)C(C)(C)C)cc1 [JA-048, (2S,4R)-1-[(2S)-2-[[7-[4-[4-[8-[3,5-Difluoro-4-(morpholinomethyl)phenyl]quinoxalin-2-yl]pyrazol-1-yl]-1-piperidyl]-7-oxo-heptanoyl]amino]-3,3-dimethyl-butanoyl]-4-hydroxy-N-[[4-(4-methylthiazol-5-yl)phenyl]methyl]pyrrolidine-2-carboxamide] | > 10 |
| Cc1ncsc1-c1ccc(CNC(=O)[C@@H]2C[C@@H](O)CN2C(=O)[C@@H](NC(=O)CCCCCCCCCCNC(=O)CN2CCN(c3ccc(Nc4nc5cccc(-c6ccc(S(C)(=O)=O)cc6)n5n4)cc3)CC2)C(C)(C)C)cc1 [JA-128, (2S,4R)-1-((S)-3,3-Dimethyl-2-(11-(2-(4-(4-((5-(4-(methylsulfonyl)phenyl)-[1,2,4]triazolo[1,5-a]pyridin-2-yl)amino)phenyl)piperazin-1-yl)acetamido)undecanamido)butanoyl)-4-hydroxy-N-(4-(4-methylthiazol-5-yl)benzyl)pyrrolidine-2-carboxamide] | > 10 |
| O=C1CCC(n2c(=O)n(CCCCCCC(=O)N3CCC(n4cc(-c5cnc6cccc(-c7cc(F)c(CN8CCOCC8)c(F)c7)c6n5)cn4)CC3)c3ccccc32)C(=O)N1 (centres unmarked) [JA-279, 3-(3-(7-(4-(4-(8-(3,5-Difluoro-4-(morpholinomethyl)phenyl)quinoxalin-2-yl)-1H-pyrazol-1-yl)piperidin-1-yl)-7-oxoheptyl)-2-oxo-2,3-dihydro-1H-benzo[d]imidazol-1-yl)piperidine-2,6-dione] | > 0.5 |
| O=C(CN1CCC(n2cc(-c3cnc4cccc(-c5cc(F)c(CN6CCOCC6)c(F)c5)c4n3)cn2)CC1)NCCOCCOCCOCCOCCNc1cccc2c1C(=O)N(C1CCC(=O)NC1=O)C2=O (centres unmarked) [JA-142, 2-[4-[4-[8-[3,5-Difluoro-4-(morpholinomethyl)phenyl]quinoxalin-2-yl]pyrazol-1-yl]-1-piperidyl]-N-[2-[2-[2-[2-[2-[[2-(2,6-dioxo-3-piperidyl)-1,3-dioxo-isoindolin-4-yl]amino]ethoxy]ethoxy]ethoxy]ethoxy]ethyl]acetamide] | > 10 |
| Cc1ncsc1-c1ccc(CNC(=O)[C@@H]2C[C@@H](O)CN2C(=O)[C@@H](NC(=O)COCCOCC(=O)N2CCC(n3cc(-c4cnc5cccc(-c6cc(F)c(CN7CCOCC7)c(F)c6)c5n4)cn3)CC2)C(C)(C)C)cc1 [JA-054, (2S,4R)-1-[(2S)-2-[[2-[2-[2-[4-[4-[8-[3,5-Difluoro-4-(morpholinomethyl)phenyl]quinoxalin-2-yl]pyrazol-1-yl]-1-piperidyl]-2-oxo-ethoxy]ethoxy]acetyl]amino]-3,3-dimethyl-butanoyl]-4-hydroxy-N-[[4-(4-methylthiazol-5-yl)phenyl]methyl]pyrrolidine-2-carboxamide] | > 10 |
| CS(=O)(=O)c1ccc(-c2cccc3nc(Nc4ccc(N5CCN(C(=O)CCCCCCCNc6cccc7c6C(=O)N(C6CCC(=O)NC6=O)C7=O)CC5)cc4)nn23)cc1 (centres unmarked) [JA-084, 2-(2,6-Dioxo-piperidin-3-yl)-4-[8-(4-{4-[5-(4-methanesulfonyl-phenyl)-[1,2,4]triazolo[1,5-a]pyridin-2-ylamino]-phenyl}-piperazin-1-yl)-8-oxo-octylamino]-isoindole-1,3-dione] | > 10 |
| Cc1cnc(Nc2ccc(N3CCN(C(=O)CCCCCCCC(=O)N[C@H](C(=O)N4C[C@H](O)C[C@H]4C(=O)NCc4ccc(-c5scnc5C)cc4)C(C)(C)C)CC3)cc2)nc1Nc1cccc(S(=O)(=O)NC(C)(C)C)c1 [JA-027, (2S,4R)-1-((S)-2-(9-(4-(4-((4-((3-(N-(tert-Butyl)sulfamoyl)phenyl)amino)-5-methylpyrimidin-2-yl)amino)phenyl)piperazin-1-yl)-9-oxononanamido)-3,3-dimethylbutanoyl)-4-hydroxy-N-(4-(4-methylthiazol-5-yl)benzyl)pyrrolidine-2-carboxamide] | > 10 |
| Cc1cnc(Nc2ccc(N3CCN(C(=O)COCCOCCOCC(=O)N[C@H](C(=O)N4C[C@H](O)C[C@H]4C(=O)NCc4ccc(-c5scnc5C)cc4)C(C)(C)C)CC3)cc2)nc1Nc1cccc(S(=O)(=O)NC(C)(C)C)c1 [JA-108, (2S,4R)-1-((S)-2-(tert-Butyl)-14-(4-(4-((4-((3-(N-(tert-butyl)sulfamoyl)phenyl)amino)-5-methylpyrimidin-2-yl)amino)phenyl)piperazin-1-yl)-4,14-dioxo-6,9,12-trioxa-3-azatetradecanoyl)-4-hydroxy-N-(4-(4-methylthiazol-5-yl)benzyl)pyrrolidine-2-carboxamide] | > 10 |

Now from value to compound:

| IC50 [µM] | Compound |
| --- | --- |
| 0.0246 | CS(=O)(=O)c1ccc(-c2cccc3nc(Nc4ccc(N5CCN(CCCCCC#Cc6ccc7c(c6)C(=O)N(C6CCC(=O)NC6=O)C7=O)CC5)cc4)nn23)cc1 (centres unmarked) [JA-252, 2-(2,6-dioxopiperidin-3-yl)-5-(7-(4-(4-((5-(4-(methylsulfonyl)phenyl)-[1,2,4]triazolo[1,5-a]pyridin-2-yl)amino)phenyl)piperazin-1-yl)hept-1-yn-1-yl)isoindoline-1,3-dione] |
| 4.31 | Cc1ncsc1-c1ccc(CNC(=O)[C@@H]2C[C@@H](O)CN2C(=O)[C@@H](NC(=O)COCCOCCNC(=O)CN2CCN(c3ccc(Nc4nc5cccc(-c6ccc(S(C)(=O)=O)cc6)n5n4)cc3)CC2)C(C)(C)C)cc1 [JA-134, (2S,4R)-1-((S)-2-(tert-Butyl)-14-(4-(4-((5-(4-(methylsulfonyl)phenyl)-[1,2,4]triazolo[1,5-a]pyridin-2-yl)amino)phenyl)piperazin-1-yl)-4,13-dioxo-6,9-dioxa-3,12-diazatetradecanoyl)-4-hydroxy-N-(4-(4-methylthiazol-5-yl)benzyl)pyrrolidine-2-carboxamide] |
| 2.25 | Cc1ncsc1-c1ccc(CNC(=O)[C@@H]2C[C@@H](O)CN2C(=O)[C@@H](NC(=O)CCCCCCCCCCNC(=O)CN2CCC(n3cc(-c4cnc5cccc(-c6cc(F)c(CN7CCOCC7)c(F)c6)c5n4)cn3)CC2)C(C)(C)C)cc1 [JA-150, (2S,4R)-1-((S)-2-(11-(2-(4-(4-(8-(3,5-Difluoro-4-(morpholinomethyl)phenyl)quinoxalin-2-yl)-1H-pyrazol-1-yl)piperidin-1-yl)acetamido)undecanamido)-3,3-dimethylbutanoyl)-4-hydroxy-N-(4-(4-methylthiazol-5-yl)benzyl)pyrrolidine-2-carboxamide] |
| 4.45 | Cc1ncsc1-c1ccc(CNC(=O)[C@@H]2C[C@@H](O)CN2C(=O)[C@@H](NC(=O)CCCCCCCCCNC(=O)CN2CCC(n3cc(-c4cnc5cccc(-c6cc(F)c(CN7CCOCC7)c(F)c6)c5n4)cn3)CC2)C(C)(C)C)cc1 [JA-166, (2S,4R)-1-((S)-2-(10-(2-(4-(4-(8-(3,5-Difluoro-4-(morpholinomethyl)phenyl)quinoxalin-2-yl)-1H-pyrazol-1-yl)piperidin-1-yl)acetamido)decanamido)-3,3-dimethylbutanoyl)-4-hydroxy-N-(4-(4-methylthiazol-5-yl)benzyl)pyrrolidine-2-carboxamide] |
| 0.0697 | O=C1CCC(N2C(=O)c3ccc(NCCCCCCC(=O)N4CCC(n5cc(-c6cnc7cccc(-c8cc(F)c(CN9CCOCC9)c(F)c8)c7n6)cn5)CC4)cc3C2=O)C(=O)N1 (centres unmarked) [JA-188, 5-((7-(4-(4-(8-(3,5-difluoro-4-(morpholinomethyl)phenyl)quinoxalin-2-yl)-1H-pyrazol-1-yl)piperidin-1-yl)-7-oxoheptyl)amino)-2-(2,6-dioxopiperidin-3-yl)isoindoline-1,3-dione] |
